The source of these data is PubChem BioAssay AID732 (Emory University Molecular Libraries Screening Center, 2007).

Several values for one entry are separate records, joined by “and”; a condition that tells them apart may be missing. Equal entries are not always repeated. Activity calls are given as the source filed them. The rule behind the calls is not given here.

For the experiment, the system named is in vivo angiogenesis, blood vessel count. The experiment in a line: reduction of blood vessel formation in vivo – HTS, in vivo study (AID 732).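 Note: zebrafish embryos dosed at one day post fertilization; 0% = reference inhibitor and 100% = plate mean.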 To be noted: active compounds read low;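 tested at 30 µM in the well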.
Regarding `Fc1ccc(C(c2ccc(F)cc2)N2CCN(C/C=C/c3ccccc3)CC2)cc1`, the vessel count % control is 91.5% (inactive).
For `C[N+](C)(C)CCC(=O)c1cccc2ccccc12` the value was 0% (inactive).
For the molecule `CCCCCCN(CCCCCC)C(=O)Cc1c(-c2ccc(F)cc2)[nH]c2ccccc12`, the vessel count % control is 126% (inactive).
Take `COc1cc2nc(N3CCN(C(=O)C4COc5ccccc5O4)CC3)nc(N)c2cc1OC` (configuration not stated): the vessel count % control is 103% (inactive).
In the case of `CC(C)NCC(O)c1ccc(O)c(O)c1` (configuration not stated) it was 97.1% (inactive); in that of `CN1C2CCC1CC(OC(=O)c1c[nH]c3ccccc13)C2` (configuration not stated), 91.1% (inactive).
In the case of `CCCN1CCC[C@@H]2Cc3nc(N)ncc3C[C@H]21` it was 107% (inactive); in that of `CCCc1c(-c2ccc(O)cc2)nn(-c2ccc(O)cc2)c1-c1ccc(O)cc1`, 106% (inactive); in that of `CC(=O)N1CCN(c2ccc(OC[C@H]3CO[C@](Cn4ccnc4)(c4ccc(Cl)cc4Cl)O3)cc2)CC1`, 113% (inactive).
For `C=CCN1C[C@@H](C)N([C@H](c2ccc(C(=O)N(CC)CC)cc2)c2cccc(OC)c2)C[C@@H]1C` the value was 85.2% (inactive).
Consider `Nc1cc(=O)[nH]c(N)n1`, for which the vessel count % control was 119% (inactive).
Turning to `NCC(O)c1ccc(O)c(O)c1` (configuration not stated), the vessel count % control was 108% (inactive).
For `CN(C)CCCN1c2ccccc2CCc2ccccc21` the value was 104% (inactive).
For `N#CC(=C(\N)Sc1ccccc1N)/C(C#N)=C(/N)Sc1ccccc1N` the value was 94.5% (inactive); for `NC(=Nc1ccccc1)NC(=O)c1nc(Cl)c(N)nc1N`, 104% (inactive).
In the case of `c1ccc(-c2ccccn2)nc1` it was 109% (inactive); in that of `CCCCCCC(C)(C)c1ccc([C@@H]2C[C@H](O)CC[C@H]2CCCO)c(O)c1`, 100% (inactive); in that of `COc1cc(C(O)CO)ccc1OS(=O)(=O)O` (configuration not stated), 93.6% (inactive).
Consider `Nc1ccncc1`, for which the vessel count % control is 118% (inactive).
For `CC[C@H](NC(=O)c1c(C)c(-c2ccccc2)nc2ccccc12)c1ccccc1` the value was 126% (inactive).
On to `COc1ccc2c(c1)c(CC(=O)O)c(C)n2Cc1ccc(F)cc1`, for which the vessel count % control is 106% (inactive).
In the case of `COc1ccc2c(c1)/C(=C/c1cnc[nH]1)C(=O)N2` it was 73.2% (inactive); in that of `O=C1NCN(c2ccccc2)C12CCN(CC1COc3ccccc3O1)CC2` (configuration not stated), 94.6% (inactive); in that of `NO`, 93.7% (inactive).
In the case of `CC12C(=O)OC(=O)C1(C)C1CCC2O1` (configuration not stated) it was 0% (inactive); in that of `COc1cc(C(O)CO)ccc1O` (configuration not stated), 96.8% (inactive).
With `N[C@H](C(=O)O)[C@H](O)C(=O)O`, the vessel count % control was 90.4% (inactive).
For `CC(Cc1ccc(OCC(=O)O)cc1)NCC(O)c1cccc(Cl)c1` (configuration not stated) the value was 97.7% (inactive).
In the case of `NCCCCN` it was 106% (inactive).
For `C[Se]C[C@H](N)C(=O)O` the value was 103% (inactive); for `CCCN1C[C@H](CSC)C[C@@H]2c3cccc4[nH]cc(c34)C[C@H]21`, 96.8% (inactive).
For `COc1cc(Cc2cnc(N)nc2N)cc(OC)c1OC`, the vessel count % control was 114% (inactive).
With `CC(=O)SCC[N+](C)(C)C`, the vessel count % control is 99% (inactive).
In the case of `Cc1ccc(OCC(O)C(C)NC(C)C)c2c1CCC2` (configuration not stated) it was 103% (inactive); in that of `O=C1C(c2c(O)[nH]c3ccc(S(=O)(=O)O)cc23)=Nc2ccccc21`, 101% (inactive).
For `CC1Cc2cc3c(cc2C(c2ccc(N)cc2)=NN1)OCO3` (configuration not stated) the value was 105% (inactive).
In the case of `CN1C2CCC1CC(OC(c1ccccc1)c1ccccc1N)C2` (configuration not stated) it was 91.2% (inactive).
For the molecule `C[N+]1(CCCCC[N+]2(C)CCCC2)CCCC1`, the vessel count % control was 114% (inactive).
For `O=C(OCCN1CCOCC1)C1(c2ccccc2)CCCCC1` the value was 91.6% (inactive).
For `NCCNC(=O)c1ccc(Cl)cc1`, the vessel count % control is 106% (inactive).
For `CN1C(=O)CC[C@H]1c1cccnc1` the value was 110% (inactive); for `NOCC(=O)O`, 114% (inactive).
In the case of `CCc1c(C(=O)OC)ncc2[nH]c3cc(OC)c(OC)cc3c12` it was 129% (inactive).
In the case of `CC(N)(C(=O)O)c1ccc(C(=O)O)cc1` (configuration not stated) it was 93.5% (inactive); in that of `CCN(CC)CCCC(C)Nc1ccnc2cc(Cl)ccc12` (configuration not stated), 108% (inactive).
On to `CN/C(=C\[N+](=O)[O-])NCCSCc1ccc(CN(C)C)o1`, for which the vessel count % control is 112% (inactive).
Consider `CN1C2CCC1CC(OC(c1ccccc1)c1ccc(Cl)cc1)C2` (configuration not stated), for which the vessel count % control was 98.7% (inactive).
In the case of `Nc1ncnc2c1ncn2C1CCCO1` (configuration not stated) it was 101% (inactive); in that of `N=C(N)SCCc1ccc(CCSC(=N)N)cc1`, 72.6% (inactive); in that of `CN1CCc2ccccc2Cc2[nH]c3ccccc3c2CC1`, 66.8% (inactive).
In the case of `CC(COc1ccc(/C=C/c2ccccc2)cc1)[N+](C)(C)C` (configuration not stated) it was 106% (inactive).
For `CCCCS(=N)(=O)CC[C@H](N)C(=O)O` (some centres not stated) the value was 93% (inactive).
For `C[N+]1(C)C2CCC1CC(OC(=O)c1c[nH]c3ccccc13)C2` (configuration not stated), the vessel count % control is 99.8% (inactive).
For `CCCC1O[C@@H]2C[C@H]3[C@@H]4CCC5=CC(=O)C=C[C@]5(C)[C@H]4[C@@H](O)C[C@]3(C)[C@]2(C(=O)CO)O1` (some centres not stated) the value was 120% (inactive).
In the case of `CC(=O)[C@H]1CCC2C3CC[C@H]4C[C@H](O)CC[C@]4(C)C3CC[C@@]21C` (some centres not stated) it was 68.7% (inactive).
Regarding `C[C@@]1(C2CCCC2)Cc2cc(OCC(=O)O)c(Cl)c(Cl)c2C1=O`, the vessel count % control is 75.4% (inactive).
Regarding `c1ccc2sc(C3(N4CCCCC4)CCCCC3)cc2c1`, the vessel count % control was 93.4% (inactive).
For `CC(=O)Nc1nnc(S(N)(=O)=O)s1` the value was 78.2% (inactive); for `N[C@@H](Cn1cc(I)c(=O)[nH]c1=O)C(=O)O`, 107% (inactive).
Regarding `CCN1CCCC1CNC(=O)c1cc(S(N)(=O)=O)ccc1OC` (configuration not stated), the vessel count % control is 112% (inactive).
For `C[N+]1(C)C2CC(OC(=O)[C@H](CO)c3ccccc3)CC1C1OC12` (some centres not stated) the value was 105% (inactive) and 146% (inactive); for `O=C1c2ccccc2-c2n[nH]c3cccc1c23`, 107% (inactive).
For `N[C@H](C(=O)O)[C@H]1C[C@@H]1C(=O)O` the value was 92.9% (inactive); for `CCN(CC)CCOC(=O)c1ccc(N)cc1`, 112% (inactive).
For `COc1ccc(NC(=O)c2ccc(-c3ccc(-c4noc(C)n4)cc3C)cc2)cc1N1CCN(C)CC1` the value was 93% (inactive).
With `NNC(=O)c1ccc(O)cc1`, the vessel count % control is 97.5% (inactive).
For `CCOC(=O)C12CC1/C(=N/O)c1ccccc1O2` (configuration not stated) the value was 104% (inactive); for `CCC(=O)c1ccc2c(c1)N(CCCN(C)C)c1ccccc1S2`, 112% (inactive).
In the case of `Nc1c2c(nc3ccccc13)CCCC2` it was 91.9% (inactive); in that of `CC(C)C[C@H](N)CSSC[C@@H](N)CC(C)C`, 39.2% (inactive).
In the case of `CCCC(=O)NCCc1c2n(c3ccc(OC)cc13)CCCc1ccccc1-2` it was 92.5% (inactive); in that of `CCN(CC)CCCCCCCCOC(=O)c1cc(OC)c(OC)c(OC)c1`, 91.4% (inactive); in that of `O=Nc1c(-c2c(O)[nH]c3ccc(S(=O)(=O)O)cc23)[nH]c2ccccc12`, 92.9% (inactive).
On to `C[C@@H](NCCc1ccc(O)cc1)[C@@H](O)c1ccc(O)cc1`, for which the vessel count % control is 92.9% (inactive).
For `CC(C)NP(=O)(NC(C)C)OP(=O)(NC(C)C)NC(C)C` the value was 117% (inactive).
For `Cc1cc2c(cc1Cl)N(C(=O)Nc1ccnc3ccccc13)CC2` the value was 108% (inactive).
Consider `C[C@H]1OC[C@@H](C[N+](C)(C)C)O1`, for which the vessel count % control is 115% (inactive).
For `CC1=NS(=O)(=O)c2cc(Cl)ccc2N1` the value was 116% (inactive); for `NC(=O)NO`, 97.8% (inactive).
For `CCCCNC(=O)NS(=O)(=O)c1ccc(C)cc1` the value was 87.6% (inactive).
For `CC1=C(CC(=O)O)c2cc(F)ccc2/C1=C\c1ccc(S(C)(=O)=O)cc1` the value was 112% (inactive); for `Cn1c(=O)c2c(ncn2C)n(C)c1=O`, 113% (inactive); for `OC1(c2ccc(Cl)cc2)CCN(Cc2c[nH]c3ccccc23)CC1`, 96.6% (inactive).
`CC(C)(C)c1cc(/C=C(\C#N)C(N)=S)cc(C(C)(C)C)c1O`: the vessel count % control is 0% (inactive).
On to `Fc1ccc(C(OCCCc2cnc[nH]2)c2ccc(F)cc2)cc1`, for which the vessel count % control is 89.2% (inactive).
Take `COc1nc(C)nc(Cl)c1NC1=NCCN1`: the vessel count % control is 81.3% (inactive).
For `CC(N=C(NC#N)Nc1ccncc1)C(C)(C)C` (configuration not stated) the value was 98.9% (inactive); for `CCOC(=O)c1ncn2c1[C@@H]1CCCN1C(=O)c1cc(OC)ccc1-2`, 102% (inactive); for `O=C(O)CCCC[C@@H]1CCSS1`, 100% (inactive).
For `CCN(CC)C(=S)SSC(=S)N(CC)CC` the value was 0% (inactive); for `c1ccc2cc(CC3=NCCN3)ccc2c1`, 120% (inactive).
In the case of `COC(=O)C1=C(C)NC(C)=C([N+](=O)[O-])C1c1ccccc1C(F)(F)F` (configuration not stated) it was 92.2% (inactive).
